This data set is described as follows: Liver microsome stability, human. Format: in vitro ADME. As for the experimental part: Liver microsome assay was used to evaluate the metabolic stability of I-VI. The test article at the concentration of […] was incubated with 0.5 mg/mL liver microsome in the presence of NADPH and UDPGA as the co-factors for 0, 15, 30, 45 and 60 minutes. The incubation was carried out at 37° C. with 5% CO2 and saturating humidity. Disappearance of the test article was monitored by LC/MS/MS. the disappearance half-life (t1/2), intrinsic clearance and hepatic extraction ratio were determined.
A general note: Liver microsomes are a subcellular fraction often used to study metabolism.

The values that follow come from patent publication US11673889B2, “Substituted imidazo[4,5-c][1,8]naphthyridines as phosphodiesterase inhibitors” (Nanjing Zhengxiang Pharmaceuticals Co., Ltd., priority 2019, dated 2023).

The structures appear in SMILES notation.

On to `COc1cc2ncc3ncn(Cc4ccc(S(N)(=O)=O)cn4)c3c2cc1OC` [Compound 12, 6-((7,8-dimethoxy-1H-imidazo[4,5-c]quinolin-1-yl)methyl)pyridine-3-sulfonamide], for which the “Hepatic extraction ratio Re” value (Human liver microsome) turned out to be 0.14. Also, the half-life (liver microsomes, Human liver microsome 0.5 mg/mL, NADPH and UDPGA, 37° C., read-out: Half-life t1/2) is 8.27 h. For the same compound, the microsomal CLint (liver microsomes, Human liver microsome, read-out: Intrinsic clearance Cl′int, (μL/min/mg protein)) came out at 2.8 µL/min/mg.
